Measured values taken from EP2820422B1, “ABCG2 TRANSPORTER ASSAY” (priority 2012, dated 2013).

Legend:
human ABCG2 protein [1] = target: T1, human ABCG2 protein (Homo sapiens, UniProt Q9UNQ0); experiment: ABCG2-ATPase activity measurement (vanadate sensitive) in cholesterol loaded, isolated Sf9 membrane vesicles; type: biochemical; set-up: removing the full-length human ABCG2 cDNA (G482 variant) from pcDNA3.1/ABCG2 with SacI digestion; made in house; host or cells: Sf9 insect cells (baculovirus)
T1 sequence (Q9UNQ0 1-655): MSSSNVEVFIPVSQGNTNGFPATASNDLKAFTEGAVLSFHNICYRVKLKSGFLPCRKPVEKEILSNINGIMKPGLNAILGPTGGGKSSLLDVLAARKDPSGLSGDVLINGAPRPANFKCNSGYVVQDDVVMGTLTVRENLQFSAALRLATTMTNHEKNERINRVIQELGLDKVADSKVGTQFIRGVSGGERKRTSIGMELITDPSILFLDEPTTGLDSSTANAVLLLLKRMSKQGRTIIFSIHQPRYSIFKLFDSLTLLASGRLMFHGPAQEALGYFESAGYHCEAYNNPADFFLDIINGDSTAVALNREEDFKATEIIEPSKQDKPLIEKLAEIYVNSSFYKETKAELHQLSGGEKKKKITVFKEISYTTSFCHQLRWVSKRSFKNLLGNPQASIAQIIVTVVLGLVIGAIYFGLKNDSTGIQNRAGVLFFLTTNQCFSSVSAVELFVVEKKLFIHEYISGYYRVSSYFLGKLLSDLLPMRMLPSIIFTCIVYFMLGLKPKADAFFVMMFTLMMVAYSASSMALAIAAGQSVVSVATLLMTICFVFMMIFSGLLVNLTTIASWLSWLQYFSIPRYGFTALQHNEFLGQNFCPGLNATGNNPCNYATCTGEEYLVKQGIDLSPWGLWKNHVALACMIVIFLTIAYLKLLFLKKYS
Protocol: Thus, for direct measurements with ABCG2 in Sf9 membrane vesicles the membrane is loaded with cholesterol. After homogenization the sample is incubated with 2.5 mg/ml cholesterol-cyclodextrin complex (Cyclolab, Budapest) for 20 minutes at +4°C then followed by centrifugation steps.
ABCG2-Sf9 membrane vesicles (10 ug total protein) or isolated ABCG2 (0.2 ug) and separately added liposomes or reconstituted ABCG2-proteoliposome (0.2 ug) was added to assay mixture (final volume 150 ul) and preincubated for 5 or 20 minutes at 37°C when isolated ABCG2 and liposomes are used.
Reaction is started by adding Mg-ATP pH 7.0 to the reaction mixture at 3 mM and stopped after 20 or 30 minutes (for purified ABCG2) by 5% SDS.
Self-degradation of ATP is checked in each measurement by ABCG2 free samples.
Assay mixture was adapted for different setup with different type of ABCG2 samples. Assay buffer was 40 mM TRIS-MOPS pH 7.0 with 0.5 mM EGTA, 50 mM […] and 2 mM DTT.
For 'ABCG2 in Sf9 membrane vesicle' setup 5 mM Na-azide, 1 mM ouabain, were given to inhibit Sf9 intrinsic ATPases. ABC specific ATPase was measured as vanadate sensitive ATPase after determining the vanadate (1.3 mM) insensitive background.
A concentration set of K2HPO4 (10-50 ug/sample) is used as standard.

human ABCG2 protein [2] = target: T1, human ABCG2 protein; details: cited from earlier work

Structure (SMILES): C[C@H](CCC(=O)NCCC[N+](C)(C)CCCS(=O)(=O)[O-])[C@H]1CC[C@H]2[C@@H]3[C@H](O)C[C@@H]4C[C@H](O)CC[C@]4(C)[C@H]3C[C@H](O)[C@]12C [CHAPS, 3-[(3-Cholamidopropyl)dimethylammonio]-1-propanesulfonate]
- effect of modifier agent on basal ABCG2-ATPase activity (human ABCG2 protein [1]; cholesterol loaded Sf9 membrane vesicles, concentrations below the CMC, drug stimulation (5 uM quercetin) not altered, Figures 3 and 4): sigificantly decreased

Structure (SMILES): COc1ccc2c3c([nH]c2c1)[C@H](C=C(C)C)N1C(=O)[C@@H]2CCCN2C(=O)[C@@H]1C3 [FTC]
- Inhibition (+ modifying agent 0.1% CHAPS) (human ABCG2 protein [1]): 70%
- Inhibition (Control) (human ABCG2 protein [1]): 70%
- inhibition of basal vanadate-sensitive ATPase activity of ABCG2 (human ABCG2 protein [2]): fully inhibited

Structure (SMILES): Cc1cn(-c2cc(NC(=O)c3ccc(C)c(Nc4nccc(-c5cccnc5)n4)c3)cc(C(F)(F)F)c2)cn1 [Nilotinib]
- effect on the ABCG2-ATPase activity (human ABCG2 protein [1]; isolated Sf9 cell membrane preparations, first an activation, then an inhibition, Figure 6): biphasic effect
